Data on 95 sequences can be found in the OligoGym collection.

Bases are written 5' to 3'; sugars and linkages follow in the same order, as letters with counts (s phosphorothioate, o phosphodiester; PS: all linkages phosphorothioate). The collection does not say whether C is 5-methylated. l = locked nucleic acid (LNA); d = 2'-deoxy (DNA)

This data set concerns the target Tau. The experiment in a line: rat primary cortical neurons, FLIPR, 25 uM ASO.
Take “TTGTAGACTATTTGCACACT (sugars l3 d14 l3, PS)”: the calcium oscillation score is 40.7 % of control.
Take ATAGCAAACAGGATAC (sugars l3 d10 l3, PS): the calcium oscillation score is 27.6 % of control.
For the sequence ATCATATCCTAAGCAT (sugars l3 d9 l4, PS), the calcium oscillation score was 60.1 % of control.
Regarding CCGTGGTCTGTCTT (sugars l3 d8 l3, PS), the calcium oscillation score is 20.9 % of control.
As to “GACTGCTCAGCTAAGACCCT (sugars l3 d14 l3, PS)”, the calcium oscillation score is 31.2 % of control.
TAATCCTGTGCTTC (sugars l3 d8 l3, PS): the calcium oscillation score is 2.3 % of control.
For the sequence “TCAACTGGTTTGTAGACTAT (sugars l3 d14 l3, PS)”, the calcium oscillation score was 29.9 % of control.
Regarding “CCATCAATTTGGAAAGATGA (sugars l3 d14 l3, PS)”, the calcium oscillation score is 52.3 % of control.
With “TATTTCCAAATTCACTTTTA (sugars llldldddddddddllddll, PS)” the figure was 135 % of control.
ATCCTTCTAAGTACAA (sugars l4 d8 l4, PS): the calcium oscillation score is 85.6 % of control.
With “CTTTATTTCCAAATTCACTT (sugars l3 d11 l1 d2 l3, PS)” the figure was 112 % of control; with “TTCCTAATTCCCAAATTCC (sugars l3 d14 l2, PS)”, 62.1 % of control; with GGCATGATTGTGGGC (sugars l3 d9 l3, PS), 5.22 % of control.
On to “CTCAGCTAAGACCCTCAGGT (sugars l3 d14 l3, PS)”, for which the calcium oscillation score was 31.2 % of control.
Regarding “TTATTTCCAAATTCACTTTT (sugars lllddldddddddddlldll, PS)”, the calcium oscillation score is 114 % of control.
Consider “CCCAGCGTGATCTTCCATCA (sugars l5 d11 l4, PS)”, for which the calcium oscillation score is 106 % of control.
For the sequence TCTTGTGATGCAGGA (sugars l3 d9 l3, PS), the calcium oscillation score is 91.8 % of control.
In the case of “AATCCTTAATTTAACCACAT (sugars l4 d13 l3, PS)”, the calcium oscillation score was 56.8 % of control.
For AATCCTGTGCTTCAG (sugars l3 d9 l3, PS), the calcium oscillation score was 57.5 % of control.
Regarding CTTGTGATGCAGGAG (sugars l3 d9 l3, PS), the calcium oscillation score is 87.8 % of control.
On to “CATATTCTTCCCTTAATA (sugars l3 d13 l2, PS)”, for which the calcium oscillation score is 81.1 % of control.
As for “CCAATCAATTATATTATAT (sugars l4 d11 l4, PS)”, the calcium oscillation score was 60.8 % of control.
With AGCAGAGGAACGTGTG (sugars l3 d10 l3, PS) the figure was 11.1 % of control; with “TTCTTCCTTTGTAATTC (sugars l4 d11 l2, PS)”, 43.5 % of control; with “CTGATCATAATCCTACC (sugars l3 d11 l3, PS)”, 54.9 % of control.
Turning to CGTTTTCTTACCACCC (sugars l2 d12 l2, PS), the calcium oscillation score was 46.2 % of control.
Turning to GTTTGTAGACTATT (sugars l3 d8 l3, PS), the calcium oscillation score was 125 % of control.
For “CAACTCAAACACTAACTT (sugars l4 d10 l4, PS)”, the calcium oscillation score was 64.5 % of control.
With ACTGCGAGGAGCAGCT (sugars l3 d10 l3, PS) the figure was 48.1 % of control.
As for ACACTGTCGTCGAATG (sugars l3 d10 l3, PS), the calcium oscillation score is 9.52 % of control.
As to GGTCAACTGGTTTGTA (sugars l3 d10 l3, PS), the calcium oscillation score is 55.6 % of control.
Consider “TCACCACTTTAATCTGC (sugars l2 d12 l3, PS)”, for which the calcium oscillation score is 45.7 % of control.
Consider “ACCCCATTTTTGACATA (sugars l3 d12 l2, PS)”, for which the calcium oscillation score was 73.1 % of control.
With “AGGTATCCAGCCATATTTCA (sugars l3 d14 l3, PS)” the figure was 20.2 % of control; with “CTTCTAGTTATACAGTTGGC (sugars l3 d14 l3, PS)”, 40.5 % of control.
With “TCCAGCTACTTACCCAA (sugars l2 d12 l3, PS)”, the calcium oscillation score is 89 % of control.
As to “TCACAACCCAAGATTCCC (sugars l2 d14 l2, PS)”, the calcium oscillation score is 69.5 % of control.
As for “CATCCATTTTCTGACTC (sugars l4 d11 l2, PS)”, the calcium oscillation score was 52 % of control.
For the sequence “GAAAGATGAAATTTGCTCTT (sugars l3 d14 l3, PS)”, the calcium oscillation score was 100 % of control.
With ACTTACTGATCATAAT (sugars l4 d8 l4, PS) the figure was 77.2 % of control; with “CCTTTTTATTTCCTCCGC (sugars l3 d13 l2, PS)”, 40.1 % of control.
With “TTGGAGTGCTCTTAGCATCA (sugars l3 d14 l3, PS)” the figure was 7.78 % of control.
Consider “CCAAAACATTCTCACCAAAC (sugars l3 d15 l2, PS)”, for which the calcium oscillation score was 68.1 % of control.
Consider GCTTCAGTCCTAATC (sugars l3 d9 l3, PS), for which the calcium oscillation score was 11.5 % of control.
On to “TTACTTTCTACTCAATTCCA (sugars l3 d15 l2, PS)”, for which the calcium oscillation score was 60.6 % of control.
With TGACCTCAACTCTACC (sugars l4 d10 l2, PS), the calcium oscillation score was 68.5 % of control.
Regarding CGTTGCTAAGATCCAG (sugars l3 d10 l3, PS), the calcium oscillation score is 9.04 % of control.
With TCCCTTTCAAACCAGC (sugars l2 d10 l4, PS) the figure was 92.3 % of control.
As to “TCAGCTCTTCCATAAGCAGG (sugars l3 d14 l3, PS)”, the calcium oscillation score is 38.5 % of control.
In the case of “ACAAACATCTAAACACCTCA (sugars l2 d14 l4, PS)”, the calcium oscillation score was 72.6 % of control.
For the sequence TAGTAAACACCATCTC (sugars l4 d9 l3, PS), the calcium oscillation score was 77.2 % of control.
With “CATGACATTTTAAACCC (sugars l3 d10 l4, PS)”, the calcium oscillation score was 69.2 % of control.
Consider “AATTTGGAAAGATGAAATTT (sugars l3 d14 l3, PS)”, for which the calcium oscillation score was 0 % of control.
With TCCACCCTTACACATA (sugars l3 d11 l2, PS) the figure was 48.8 % of control; with “CAGTAACATCCATTTCT (sugars l4 d11 l2, PS)”, 86.2 % of control.
The result for TAATCACTCATGCCTT (sugars l4 d8 l4, PS) reads 65.6 % of control; that for “ATATTTAGTTTTCCCAC (sugars l2 d11 l4, PS)”, 42.4 % of control; that for “CCCAGCGTGATCTTCCATCA (sugars l4 d11 l5, PS)”, 104 % of control.
With “CCCTTAGACATAACACA (sugars l3 d12 l2, PS)”, the calcium oscillation score was 65.5 % of control.
Regarding AGGAAATCCACAGGGA (sugars l3 d10 l3, PS), the calcium oscillation score is 0 % of control.
With “CCCCACTTTTAATTAAAT (sugars l3 d11 l4, PS)”, the calcium oscillation score is 95.2 % of control.
The result for TTTGAGTTGAGGGACC (sugars l3 d10 l3, PS) reads 0 % of control.
With “TTATTTCCAAATTCACTTTT (sugars llldlddddddddddldlll, PS)” the figure was 116 % of control; with “CAAACAATCCATTTATATTC (sugars l4 d12 l4, PS)”, 55.5 % of control.
On to “CCCAGCGTGATCTTCCATCA (sugars lldllddddddddddlldll, PS)”, for which the calcium oscillation score was 100 % of control.
ATGCAGGAGTTGTAAG (sugars l3 d10 l3, PS): the calcium oscillation score is 40.8 % of control.
“CAAGAGTCACTGCACTGCAT (sugars l3 d14 l3, PS)”: the calcium oscillation score is 50 % of control.
With “TCTCTTAACTTTATTTTATT (sugars l4 d12 l4, PS)”, the calcium oscillation score is 84.9 % of control.
With ACCATCATACTCCAAG (sugars l4 d9 l3, PS), the calcium oscillation score is 76 % of control.
Regarding “ATTAATTATTAAATCTTCTC (sugars l4 d12 l4, PS)”, the calcium oscillation score is 72.6 % of control.
The result for CAGCTTCGTCTTCCAG (sugars l3 d10 l3, PS) reads 75.9 % of control; that for CGCGGAAGGTCAGCTT (sugars l3 d10 l3, PS), 33.3 % of control.
With ATGCTTACACACCACA (sugars l2 d10 l4, PS), the calcium oscillation score was 88.5 % of control.
As to GAAGGTCAGCTTGTGG (sugars l3 d10 l3, PS), the calcium oscillation score was 11.4 % of control.
The result for “ACTTTATTTCCAAATTCACTTTTAC (sugars lldlddddddddddddddddldlll, PS)” reads 35.4 % of control.
“ATACTCAAATTCTTCCT (sugars l3 d10 l4, PS)”: the calcium oscillation score was 84.8 % of control.
For “CAGCCTACTTTATTCCCT (sugars l2 d14 l2, PS)”, the calcium oscillation score is 82.2 % of control.
For the sequence GTGATGCAGGAGTT (sugars l3 d8 l3, PS), the calcium oscillation score is 64.8 % of control.
The result for CACTCTGATACTATTAT (sugars l4 d9 l4, PS) reads 69 % of control; that for AATTTCTCTAATTGTCC (sugars l4 d9 l4, PS), 69 % of control; that for TGATCACCCTAAACCA (sugars l3 d10 l3, PS), 118 % of control.
With “GGTGATATTGTCCAGGGACC (sugars l3 d14 l3, PS)”, the calcium oscillation score is 0 % of control.
With “TTATTCTTTTTTTTTCCACA (sugars l2 d14 l4, PS)”, the calcium oscillation score is 30.3 % of control.
In the case of “ATTTAATTTATTTTTTACT (sugars l4 d11 l4, PS)”, the calcium oscillation score is 60.1 % of control.
With “TACCCATCTTAATTCATTTA (sugars l3 d14 l3, PS)” the figure was 111 % of control; with CTCAGGTCAACTGGTT (sugars l3 d10 l3, PS), 83.8 % of control.
TTATTAATTATCTGCA (sugars l3 d10 l3, PS): the calcium oscillation score is 58.7 % of control.
Take “TTCCTTTCAATGACCAA (sugars l3 d10 l4, PS)”: the calcium oscillation score is 56.6 % of control.
As to “CCAGCGTGATCTTCCATCAC (sugars lldllddddddddddlldll, PS)”, the calcium oscillation score is 121 % of control.
On to “TAATTACATTTTTTCTTTTT (sugars l4 d12 l4, PS)”, for which the calcium oscillation score was 58.2 % of control.
With “CCACTACAAGCTCCACAT (sugars l2 d14 l2, PS)” the figure was 50 % of control; with “GCCACACTTGGAGGTCACCT (sugars l3 d14 l3, PS)”, 4.52 % of control; with “CATAAATGACTATACTTATT (sugars l3 d14 l3, PS)”, 94.7 % of control.
Take GCCACCTCCTGGTTTA (sugars l3 d10 l3, PS): the calcium oscillation score was 86.1 % of control.
Regarding “AGCAGGTTAAGTGATTAACC (sugars l3 d14 l3, PS)”, the calcium oscillation score is 16 % of control.
